Key:
[1] = Inhibition of tubulin polymerization at 3 uM after 1 hr by fluorescence assay
ACHN = test: Cytotoxicity against human ACHN cells after 48 hrs by MTT assay; format: functional, cell-based
A-375 = test: Cytotoxicity against human A375 cells after 48 hrs by MTT assay; format: functional, cell-based; details: A-375, 48 h
HT-29 = test: Cytotoxicity against human HT-29 cells after 48 hrs by MTT assay; format: functional, cell-based; details: HT-29, 48 h
A549 [2] = test: cells; details: Homo sapiens, A549, 48 h
Description: Cytotoxicity against human A549 cells after 48 hrs by MTT assay

MCF7 = test: cells; details: Homo sapiens, MCF7, 48 h
Description: Cytotoxicity against human MCF7 cells after 48 hrs by MTT assay

A549 [3] = test: Cell cycle arrest in human A549 cells assessed as cell accumulation at subG1 phase at 2 uM after 48 hrs by propidium iodide staining based flow cytometry (reference value: […]); format: functional
A549 [4] = test: Induction of apoptosis in human A549 cells assessed as viable cells at 2 uM after 48 hrs by annexin-V FITC/propidium iodide staining based FACS analysis; format: functional; details: A549, 48 h, read-out: Activity
A549 [5] = test: Cell cycle arrest in human A549 cells assessed as cell accumulation at G2/M phase at 2 uM after 48 hrs by propidium iodide staining based flow cytometry (reference value: 23.75%); format: functional
A549 [6] = test: Induction of apoptosis in human A549 cells assessed as late apoptotic cells at 2 uM after 48 hrs by annexin-V FITC/propidium iodide staining based FACS analysis; format: functional
A549 [7] = test: Cell cycle arrest in human A549 cells assessed as cell accumulation at G0/G1 phase at 2 uM after 48 hrs by propidium iodide staining based flow cytometry (reference value: 70.15%); format: functional
A549 [8] = test: Induction of apoptosis in human A549 cells assessed as necrotic cells at 2 uM after 48 hrs by annexin-V FITC/propidium iodide staining based FACS analysis; format: functional
A549 [9] = test: Induction of apoptosis in human A549 cells assessed as early apoptotic cells at 2 uM after 48 hrs by annexin-V FITC/propidium iodide staining based FACS analysis; format: functional

Structure (SMILES)	inhibition [1]	IC50 (ACHN)	IC50 (A-375)	IC50 (HT-29; read-out: IC50)	IC50 (A549 [2])	IC50 (MCF7)	Activity (A549 [3])	viability at 2 µM (A549 [4])	Activity (A549 [5])	Activity (A549 [6])	Activity (A549 [7])	IC50 (HT-29)	Activity (A549 [8])	Activity (A549 [9])
COC(=O)Nc1nc2cc(C(=O)c3cccs3)ccc2[nH]1	59.6%	–	–	–	–	–	–	–	–	–	–	–	–	–
CCOc1ccc2nc(NC(=O)COc3cc(/C=C/C(=O)c4cc(OC)c(OC)c(OC)c4)ccc3OC)sc2c1	–	2600 nM	5800 nM	2400 nM	8100 nM	4200 nM	–	–	–	–	–	–	–	–
COc1ccc(/C=C\c2cc(OC)c(OC)c(OC)c2)cc1O [COMBRETASTATIN A4]	69.7%	170 nM	210 nM	–	110 nM	180 nM	8.44%	54.4%	63.75%	23.3%	13.98%	930 nM	22%	0.3%
